Experiments:
Assay in all cases: cell viability (% survival relative to DMSO control); higher = less cytotoxic
Conditions in all cases: 72 h
[1] = tested on: myeloid leukemia patient primary cells Pat.13
How it was run: (§1)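 Mononuclear cells from patients with AML or CML were thawed, purified on Ficoll and placed in RPMI 1640 with 10% FBS at 10,000 cells/well on 384-well plates. The plates came pre-printed with 70 compounds at five tenfold concentrations spanning 1–10,000 nM, in duplicate, and cells were exposed for 72 h. CellTiter-Glo gave viability, scaled between DMSO wells and wells with 10 μM proteasome inhibitor. Where reported, area under the curve was obtained from log-logistic fits with four parameters using the drc and PharmacoGx R packages.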

[2] = tested on: myeloid leukemia patient primary cells Pat.1
How it was run: as §1

[3] = tested on: myeloid leukemia patient primary cells Pat.2
How it was run: as §1

[4] = tested on: myeloid leukemia patient primary cells Pat.15
How it was run: as §1

Row | SMILES | cell viability ([1]; 1 nM) [%] | cell viability ([1]; 10 nM) [%] | cell viability ([1]; 100 nM) [%] | cell viability ([1]; 1000 nM) [%] | cell viability ([1]; 10000 nM) [%] | cell viability ([2]; 1 nM) [%] | cell viability ([2]; 10 nM) [%] | cell viability ([2]; 100 nM) [%] | cell viability ([2]; 1000 nM) [%] | cell viability ([2]; 10000 nM) [%] | cell viability ([3]; 1 nM) [%] | cell viability ([3]; 10 nM) [%] | cell viability ([3]; 100 nM) [%] | cell viability ([3]; 1000 nM) [%] | cell viability ([3]; 10000 nM) [%] | cell viability ([4]; 1 nM) [%] | cell viability ([4]; 10 nM) [%] | cell viability ([4]; 100 nM) [%] | cell viability ([4]; 1000 nM) [%] | cell viability ([4]; 10000 nM) [%]
1 | Sc1ncnc2nc[nH]c12 [6-mercaptopurine] | 79.6 | 88.3 | 84.9 | 84.9 | 93.2 | > 100 | 95.1 | 92.6 | 84.3 | 93.1 | 95.6 | > 100 | 94 | 99.9 | > 100 | 99.2 | > 100 | 98.5 | 94.3 | 98.3
2 | Cc1noc2c1-c1ccccc1C(c1ccc(Cl)cc1)=N[C@H]2CC(N)=O [CPI-0610] | 90.2 | 95.2 | 87.3 | 52.2 | 46.9 | 90.3 | 93.9 | 84.9 | 39.1 | 21.7 | 99.4 | 97.6 | 88.9 | 58.5 | 40.3 | 95.1 | 94.6 | 76.1 | 3.36 | 1.08
3 | Nc1ccn([C@@H]2O[C@H](CO)[C@@H](O)[C@@H]2O)c(=O)n1 [Cytarabine] | 91.9 | 68.8 | 85.2 | 60.1 | 9.9 | 99.3 | 96.1 | 76.9 | 84.9 | 60.7 | 99 | 88.1 | 95.9 | 89.1 | 37.3 | 94.5 | 86.4 | 99.6 | 81 | 32.8
4 | CCN(CC)CCN(Cc1ccc(-c2ccc(C(F)(F)F)cc2)cc1)C(=O)Cn1c(SCc2ccc(F)cc2)nc(=O)c2c1CCC2 [Darapladib] | 74.1 | 80.5 | 74.2 | 71.2 | < 0 | 79.5 | 83 | 61.6 | 95.4 | < 0 | 84.7 | 95.9 | 83 | 83.1 | < 0 | 82.5 | > 100 | 85.8 | 96 | 0.433
5 | CC12CCC(O)CC1CCC1C2CCC2(C)C(C3=CC(=O)OC3)CCC12O (stereo not given) [Digitoxigenin] | > 100 | 64.8 | 91.8 | 15 | 4.96 | 95.1 | 74 | 63.2 | 21.5 | 13 | 94.1 | 95.3 | 88.5 | 42.4 | 6.42 | > 100 | 92.9 | 97.5 | 8.87 | 2.72
6 | C[C@H]1O[C@@H](O[C@H]2[C@@H](O)C[C@H](O[C@H]3[C@@H](O)C[C@H](O[C@H]4CC[C@@]5(C)[C@H](CC[C@@H]6[C@@H]5C[C@@H](O)[C@]5(C)[C@@H](C7=CC(=O)OC7)CC[C@]65O)C4)O[C@@H]3C)O[C@@H]2C)C[C@H](O)[C@@H]1O [Digoxin] | 95.8 | 99 | 88.5 | 5.75 | 3.42 | 96.2 | 84.5 | 85.3 | 13.2 | 8.18 | 99.2 | 96.8 | 82.8 | 26.6 | 3.27 | 98.4 | 98.4 | 50.6 | 1.74 | 1.52
7 | Clc1ccc(COC(Cn2ccnc2)c2ccc(Cl)cc2Cl)cc1 (stereo not given) [Econazole] | 77.8 | 95 | 70.2 | 75 | 60.6 | 83.3 | 77.2 | 93.6 | > 100 | 52.8 | 94.9 | 91.2 | 96.5 | 97.6 | 90 | 84.3 | 92.6 | 98.3 | 89.4 | 68.7
8 | C[C@]12O[C@H](C[C@]1(O)CO)n1c3ccccc3c3c4c(c5c6ccccc6n2c5c31)CNC4=O [Lestaurtinib] | 89 | 46.6 | 48.2 | 57.7 | 1.29 | 93.5 | 54.2 | 22.3 | 22.1 | < 0 | 97.1 | 79 | 74.7 | 51.1 | 11.5 | 97.1 | 61.3 | 43.7 | 2.83 | 0.259
9 | CC(Cc1ccc(O)c(O)c1)C(C)Cc1ccc(O)c(O)c1 (stereo not given) [Masoprocol] | 93.2 | 97.5 | 98.5 | 70.5 | 56.2 | > 100 | 92.3 | 90.5 | 85.6 | 51.7 | 98.7 | 89.8 | 90.3 | 87.7 | 68 | 89 | 93.8 | 94.4 | 80.9 | 31.1
10 | COc1c(C)c2c(c(O)c1C/C=C(\C)CCC(=O)O)C(=O)OC2 [Mycophenolic acid] | 61 | 90.7 | 73.5 | 68.1 | 63.1 | 78.4 | 96.8 | 85 | 93.9 | 87.3 | 97.4 | 99.8 | 82.1 | > 100 | 85.6 | 91.6 | 94.3 | 86.7 | > 100 | 84.3
11 | CCOC(=O)N1c2ccc(C(F)(F)F)cc2[C@@H](N(Cc2cc(C(F)(F)F)cc(C(F)(F)F)c2)C(=O)OC)C[C@H]1CC [Torcetrapib] | > 100 | 71.5 | 92.1 | 81.1 | 48.2 | 93.1 | 72.9 | 92.6 | 95.4 | 65.3 | 97.2 | 84.4 | 99.7 | 99.7 | 80.2 | 98.5 | 86 | 97.7 | 87.1 | 75.8

From the supplement of paper PMC8671470
